Data on eleven compounds can be found in patent US12509444B2, “Compounds and methods for CD73 modulation and indications therefor” (Plexxikon Inc., priority 2019, dated 2025).

As usually defined, the IC50 is the concentration that inhibits the measured activity by half.

Experiment [1] concerns the target T1, human CD73 (Homo sapiens, UniProt P21589).
T1 construct: expressed in transfected cells
T1 sequence (P21589 27-549): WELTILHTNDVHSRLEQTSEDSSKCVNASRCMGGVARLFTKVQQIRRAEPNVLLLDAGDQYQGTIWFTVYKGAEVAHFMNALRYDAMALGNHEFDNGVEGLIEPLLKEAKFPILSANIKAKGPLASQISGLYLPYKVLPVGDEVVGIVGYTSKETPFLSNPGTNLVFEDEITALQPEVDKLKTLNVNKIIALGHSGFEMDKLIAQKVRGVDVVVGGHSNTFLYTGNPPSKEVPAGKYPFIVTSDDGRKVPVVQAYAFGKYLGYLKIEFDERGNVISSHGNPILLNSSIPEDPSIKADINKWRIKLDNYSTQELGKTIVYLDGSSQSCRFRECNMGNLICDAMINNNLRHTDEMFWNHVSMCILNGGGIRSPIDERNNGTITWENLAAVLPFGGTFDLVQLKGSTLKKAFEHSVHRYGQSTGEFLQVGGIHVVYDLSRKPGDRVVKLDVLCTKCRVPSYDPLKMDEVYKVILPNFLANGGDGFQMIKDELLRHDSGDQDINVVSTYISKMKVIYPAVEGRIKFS
Put plainly: Inhibitor activity against CD73 in cell based assay (CD73 expressing CHO-K1 cells). Particulars: CHO-K1 cells expressing human CD73, 150 μM AMP, 4 hours of incubation; read-out: CHO-K1 CELL VARIANT: CD73 IC50. The method in brief:
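Stably transfected CHO-K1 cells expressing human CD73 (1×10^4/well) incubated 4 h with compound (8-point 1:3 titration, top 10 μM final, 0.2% DMSO) and 150 μM AMP. Residual AMP in supernatant measured by CellTiter-Glo luminescence with 1 μM ATP after 30 min at room temperature; IC50 by nonlinear regression of percent inhibition vs high/low controls.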

Experiment [2] deals with T2, Human CD73 (amino acid residues 27-549) (Homo sapiens, UniProt P21589).
T2 construct: Human CD73 (amino acid residues 27-549); His tag (N); made in house; host or cells: E. coli
T2 sequence (P21589 27-549): T1 sequence (P21589 27-549)
Put plainly: CD73 enzymatic assay (luciferase-based indirect assay, CellTiter-Glo). Type of experiment: biochemical. As to conditions: 0.4 nM CD73, 150 μM AMP, 1 hour at room temperature. In outline: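 His-tagged human CD73 (27-549) from E. coli, 0.4 nM, with 150 μM AMP in 50 mM HEPES pH 7.4, 0.01% Tween 20; 1 h at room temperature. AMP remaining read by CellTiter-Glo 2.0 luminescence with 1 μM final ATP after 30 min. IC50 from nonlinear regression of % inhibition.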
(In general: ATP-based viability assays read luminescence as a measure of living cells.)

On to `CCn1cc(S(=O)(=O)N[C@H]2CC[C@H](NC(=O)O[C@@H]3CCN(c4cnn(C)c(=O)c4Cl)C3)CC2)cn1` [P-0226, (R)-1-(5-chloro-1-methyl-6-oxo-1,6-dihydropyridazin-4-yl)pyrrolidin-3-yl ((1r,4R)-4-((1-ethyl-1H-pyrazole)-4-sulfonamido)cyclohexyl) carbamate], for which the concentration for half-maximal inhibition (IC50) in experiment [1] and in experiment [2] was 0.001 to 10 µM in each case.

As for `Cn1ncc(N2CC[C@@H](OC(=O)N[C@H]3CC[C@H](NS(=O)(=O)C4CC4)CC3)C2)c(Cl)c1=O` [P-0227, (R)-1-(5-chloro-1-methyl-6-oxo-1,6-dihydropyridazin-4-yl)pyrrolidin-3-yl ((1r,4R)-4-(cyclopropanesulfonamido)cyclohexyl)carbamate], the IC50 in experiment [1] and in experiment [2] was 0.001 to 10 µM each time.

On to `Cn1ncc(N2CC[C@@H](OC(=O)N[C@H]3CC[C@H](NS(=O)(=O)C4CCCC4)CC3)C2)c(Cl)c1=O` [P-0228, (R)-1-(5-chloro-1-methyl-6-oxo-1,6-dihydropyridazin-4-yl)pyrrolidin-3-yl ((1r,4R)-4-(cyclopentanesulfonamido)cyclohexyl)carbamate], for which the concentration for half-maximal inhibition (IC50) in experiment [1] and in experiment [2] was 0.001 to 10 µM in each case.

In the case of `C[C@]1(O)CC[C@H](NC(=O)O[C@@H]2CCN(c3cn[nH]c(=O)c3Cl)C2)CC1` [P-0229, (R)-1-(5-chloro-6-oxo-1,6-dihydropyridazin-4-yl)pyrrolidin-3-yl ((1r,4R)-4-hydroxy-4-methylcyclohexyl)carbamate], the half-maximal inhibitory concentration (IC50) in experiment [1] and in experiment [2] was 0.001 to 10 µM each time.

`CO[C@H]1CC[C@H](NC(=O)O[C@@H]2CCN(c3cn[nH]c(=O)c3Cl)C2)CC1` [P-0230, (R)-1-(5-chloro-6-oxo-1,6-dihydropyridazin-4-yl)pyrrolidin-3-yl ((1r,4R)-4-methoxycyclohexyl)carbamate]: the IC50 in experiment [1] and in experiment [2] was 0.001 to 10 µM each time.

For the compound `CO[C@H]1CC[C@@H](NC(=O)O[C@@H]2CCN(c3cn[nH]c(=O)c3Cl)C2)CC1` [P-0231, (R)-1-(5-chloro-6-oxo-1,6-dihydropyridazin-4-yl)pyrrolidin-3-yl ((1s,4S)-4-methoxycyclohexyl)carbamate], the IC50 in experiment [1] and in experiment [2] was 0.001 to 10 µM each time.

Turning to `O=C(NCC1CCS(=O)(=O)CC1)O[C@@H]1CCN(c2cn[nH]c(=O)c2Cl)C1` [P-0232, (R)-1-(5-chloro-6-oxo-1,6-dihydropyridazin-4-yl)pyrrolidin-3-yl ((1,1-dioxidotetrahydro-2H-thiopyran-4-yl)methyl)carbamate], the IC50 in experiment [1] and in experiment [2] was 0.001 to 10 µM each time.

Turning to `O=C(NCC1CCCCC1)O[C@@H]1CCN(c2cn[nH]c(=O)c2Cl)C1` [P-0233, (R)-1-(5-chloro-6-oxo-1,6-dihydropyridazin-4-yl)pyrrolidin-3-yl (cyclohexylmethyl)carbamate], the concentration for half-maximal inhibition (IC50) in experiment [1] and in experiment [2] was 0.001 to 10 µM throughout.

For `O=C(NCCC1CCCC1)O[C@@H]1CCN(c2cn[nH]c(=O)c2Cl)C1` [P-0234, (R)-1-(5-chloro-6-oxo-1,6-dihydropyridazin-4-yl)pyrrolidin-3-yl (2-cyclopentylethyl)carbamate], the IC50 in experiment [1] and in experiment [2] was 0.001 to 10 µM each time.

Turning to `O=C(NCCCO)O[C@@H]1CCN(c2cn[nH]c(=O)c2Cl)C1` [P-0235, (R)-1-(5-chloro-6-oxo-1,6-dihydropyridazin-4-yl)pyrrolidin-3-yl (3-hydroxypropyl)carbamate], the IC50 in experiment [1] and in experiment [2] was 0.001 to 10 µM in each case.

`O=C(NCC1CCOCC1)O[C@@H]1CCN(c2cn[nH]c(=O)c2Cl)C1` [P-0236, (R)-1-(5-chloro-6-oxo-1,6-dihydropyridazin-4-yl)pyrrolidin-3-yl ((tetrahydro-2H-pyran-4-yl)methyl)carbamate]: the IC50 in experiment [1] and in experiment [2] was 0.001 to 10 µM each time.
